# Results reported in patent US9926276B2, “Substituted benzamides with activity towards EP4 receptors” (DRACONIS PHARMA, S.L., priority 2013, dated 2018).
# Columns and labels:
# human EP4 receptor [1] = target: T1, human EP4 receptor (Homo sapiens, UniProt P35408); test: Measurement of cAMP responses by Homogeneous Time Resolved Fluorescence (Test 2); assay type: cell-based; parameters: expressed in transfected cells; settings: for Results of Test 2 (Functional assay, antagonist % inh): at 10 μM, PGE2 1 nM, HEK-293 cells stably expressing human EP4; for inhibition at 10 µM: HEK293, PGE2 1 nM, HEK-293 cells stably expressing human EP4, read-out: Results of Test 2 (Functional assay, antagonist % inh)
# T1 sequence (P35408 whole entry): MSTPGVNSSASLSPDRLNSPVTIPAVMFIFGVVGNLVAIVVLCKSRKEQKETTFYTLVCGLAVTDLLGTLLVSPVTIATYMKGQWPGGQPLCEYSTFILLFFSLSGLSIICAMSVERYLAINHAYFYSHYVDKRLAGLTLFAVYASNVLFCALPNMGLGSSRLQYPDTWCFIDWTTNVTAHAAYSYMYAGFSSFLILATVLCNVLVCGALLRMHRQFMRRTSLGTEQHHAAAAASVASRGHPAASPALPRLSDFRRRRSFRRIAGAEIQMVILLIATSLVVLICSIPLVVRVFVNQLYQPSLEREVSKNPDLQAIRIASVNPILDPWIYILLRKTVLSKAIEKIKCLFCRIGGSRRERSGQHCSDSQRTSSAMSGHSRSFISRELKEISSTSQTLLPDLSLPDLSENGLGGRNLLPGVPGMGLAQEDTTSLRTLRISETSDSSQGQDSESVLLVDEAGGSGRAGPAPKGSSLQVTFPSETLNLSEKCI
# Description: Test 2: Measurement of cAMP Responses by Homogeneous Time Resolved Fluorescence
# cAMP measurements on HEK-293 cells that stably expressed human EP4 receptors were performed by using a system based on Homogeneous Time Resolved Fluorescense (HTRF). This technology allows the direct measurement of cAMP in living cells. The principle of this assay is based on competition between cAMP produced by cells and cAMP-d2 conjugate for the binding with monoclonal anti-cAMP-cryptate conjugate. The HTRF cAMP kit from CisBio was used according to the manufacturer's directions. The experimental procedure was performed as stated below.
# Suspended cells (30,000 cells per well) were added to 96-well culture plates in 30 μl of Optimem supplemented with 500 μM IBMX. Compounds were then added in 10 μl of stimulation buffer and incubated at 25° C. for 30 minutes followed by 10 μl of PGE2 to a final concentration of 1 nM. After 30 minutes at 25° C., the reaction was stopped lysing the cells with a mixture of 25 μl of cryptate and 25 μl of cAMP-d2 prepared in the lysis buffer supplied by the manufacturer. Plates were incubated for an additional hour at room temperature and read at 665 nm/620 nm using an UltraEvolution Plate reader (Tecan).
# Antagonist percentage inhibition was calculated relating compounds activity to the 0% inhibition of the wells incubated with 1 nM PGE2 alone and 100% inhibition of the wells incubated with 1 nM PGE2 plus 1 μM of the reference antagonist.
# human EP4 receptor [2] = target: T1, human EP4 receptor; test: Human EP4 receptor radioligand binding assay (Test 1); parameters: expressed in transfected cells; host or cells: HEK-293 cell membranes; settings: [3H]-PGE2 1 nM, transfected HEK-293 cell membranes; for Results of Test 1 (Binding assay, % inh): at 10 μM; for inhibition at 10 µM: read-out: Results of Test 1 (Binding assay, % inh)
# Description: Test 1: Human EP4 Receptor Radioligand Binding Assay
# To investigate binding properties of EP4 receptor ligands to human EP4 receptor, transfected HEK-293 cell membranes and [3H]-PGE2 (Perkin Elmer) were used. In 96-well plates the assay was carried out with a total reaction volume of 250 μl, containing 25 μl of membrane suspension (30 μg protein/well), 25 μl of [3H]-PGE2 (1 nM) in either absence or presence of 25 μl of either buffer or PGE2 (10 μM) for total and non-specific binding, respectively. Binding buffer contained 25 mM MES, 10 mM MgCl2 and 1 mM EDTA at pH 6.0. Plates were incubated at 25° C. for 120 minutes. After the incubation period, 200 μl of incubate were transferred to MultiScreen HTS, FB plates (Millipore), filtered and plates were washed 6 times with ice-cold 10 mM MES, 0.01% BSA at pH 6.0. Filters were dried and counted in a MicroBeta scintillation counter (Perkin-Elmer) using EcoScint liquid scintillation cocktail.
# Percentage inhibition was calculated relating compounds activity to the 0% inhibition of the wells incubated with 1 nM [3H]-PGE2 alone (total binding) and 100% inhibition of the wells incubated with 1 nM [3H]-PGE2 plus 10 μM PGE2 (non-specific binding).
Structure (SMILES),"Results of Test 2 (Functional assay, antagonist % inh) (human EP4 receptor [1])","Results of Test 1 (Binding assay, % inh) (human EP4 receptor [2])",inhibition at 10 µM (human EP4 receptor [1]),inhibition at 10 µM (human EP4 receptor [2])
"Cc1ccc(-c2cccc(F)c2)cc1C(=O)Nc1c(C)cc(C(=O)O)cc1C [Example 4, 4-(3′-Fluoro-4-methylbiphenyl-3-ylcarboxamido)-3,5-dimethylbenzoic acid]",$ (% inh >75),# (% inh >75),–,–
"Cc1ccc(-c2cccc(C#N)c2)cc1C(=O)Nc1c(C)cc(C(=O)O)cc1C [Example 5, 4-(3′-Cyano-4-methylbiphenyl-3-ylcarboxamido)-3,5-dimethylbenzoic acid]",$ (% inh >75),# (% inh >75),–,–
"Cc1ccc(-c2cccc(CO)c2)cc1C(=O)Nc1c(Cl)cc(C(=O)O)cc1Cl [Example 6, 3,5-Dichloro-4-(3′-(hydroxymethyl)-4-methylbiphenyl-3-ylcarboxamido)benzoic acid]",$ (% inh >75),# (% inh >75),–,–
"Cc1ccc(-c2cccc(C#N)c2)cc1C(=O)Nc1c(Cl)cc(C(=O)O)cc1Cl [Example 7, 3,5-Dichloro-4-(3′-cyano-4-methylbiphenyl-3-ylcarboxamido)benzoic acid]",$ (% inh >75),# (% inh >75),–,–
"COc1cccc(-c2ccc(C)c(C(=O)Nc3c(Cl)cc(C(=O)O)cc3Cl)c2)c1 [Example 8, 3,5-Dichloro-4-(3′-methoxy-4-methylbiphenyl-3-ylcarboxamido)benzoic acid]",$ (% inh >75),# (% inh >75),–,–
"Cc1ccc(-c2cccc(CO)c2)cc1C(=O)Nc1c(C)cc(C(=O)O)cc1C [Example 9, 4-(3′-(Hydroxymethyl)-4-methylbiphenyl-3-ylcarboxamido)-3,5-dimethylbenzoic acid]",$ (% inh >75),# (% inh >75),–,–
"Cc1ccc(-c2cc(Cl)ccc2F)cc1C(=O)Nc1c(C)cc(C(=O)O)cc1C [Example 10, 4-(5′-Chloro-2′-fluoro-4-methylbiphenyl-3-ylcarboxamido)-3,5-dimethylbenzoic acid]",$ (% inh >75),# (% inh >75),–,–
"Cc1ccc(-c2cc(F)ccc2F)cc1C(=O)Nc1c(C)cc(C(=O)O)cc1C [Example 11, 4-(2′,5′-Difluoro-4-methylbiphenyl-3-ylcarboxamido)-3,5-dimethylbenzoic acid]",$ (% inh >75),# (% inh >75),–,–
"COc1ccc(F)c(-c2ccc(C)c(C(=O)Nc3c(C)cc(C(=O)O)cc3C)c2)c1 [Example 12, 4-(2′-fluoro-5′-methoxy-4-methylbiphenyl-3-ylcarboxamido)-3,5-dimethylbenzoic acid]",$ (% inh >75),# (% inh >75),–,–
"Cc1ccc(-c2cccc(C(N)=O)c2)cc1C(=O)Nc1c(C)cc(C(=O)O)cc1C [Example 13, 4-(3′-Carbamoyl-4-methylbiphenyl-3-ylcarboxamido)-3,5-dimethylbenzoic acid]",$ (% inh >75),# (% inh >75),–,–
"Cc1cc(C(=O)O)cc(C)c1NC(=O)c1cc(-c2cccc(Cl)c2)ccc1Cl [Example 14, 4-(3′,4-Dichlorobiphenyl-3-ylcarboxamido)-3,5-dimethylbenzoic acid]",$ (% inh >75),# (% inh >75),–,–
"Cc1ccc(-c2cccc(Cl)c2)cc1C(=O)Nc1c(Cl)cc(C(=O)O)cc1Cl [Example 15, 3,5-Dichloro-4-(3′-chloro-4-methylbiphenyl-3-ylcarboxamido)benzoic acid]",$ (% inh >75),# (% inh >75),–,–
"O=C(O)c1cc(Cl)c(NC(=O)c2cc(-c3cccc(CO)c3)ccc2Cl)c(Cl)c1 [Example 16, 3,5-Dichloro-4-(4-chloro-3′-(hydroxymethyl)biphenyl-3-ylcarboxamido)benzoic acid]",$ (% inh >75),# (% inh >75),–,–
"COc1cccc(-c2ccc(Cl)c(C(=O)Nc3c(Cl)cc(C(=O)O)cc3Cl)c2)c1 [Example 17, 3,5-Dichloro-4-(4-chloro-3′-methoxybiphenyl-3-ylcarboxamido)benzoic acid]",$ (% inh >75),# (% inh >75),–,–
"N#Cc1cccc(-c2ccc(Cl)c(C(=O)Nc3c(Cl)cc(C(=O)O)cc3Cl)c2)c1 [Example 18, 3,5-Dichloro-4-(4-chloro-3′-cyanobiphenyl-3-ylcarboxamido)benzoic acid]",$ (% inh >75),# (% inh >75),–,–
"O=C(O)c1cc(Cl)c(NC(=O)c2cc(-c3cccc(Cl)c3)ccc2Cl)c(Cl)c1 [Example 19, 3,5-Dichloro-4-(3′,4-dichlorobiphenyl-3-ylcarboxamido)benzoic acid]",$ (% inh >75),# (% inh >75),–,–
"Cc1ccc(-c2cccc(Cl)c2)cc1C(=O)Nc1c(C)cc(C(=O)O)cc1C [Example 20, 4-(3′-Chloro-4-methylbiphenyl-3-ylcarboxamido)-3,5-dimethylbenzoic acid]",$ (% inh >75),# (% inh >75),–,–
"Cc1cc(C(=O)O)ccc1NC(=O)c1cc(-c2cccc(Cl)c2)ccc1Cl [Example 21, 4-(3′,4-Dichlorobiphenyl-3-ylcarboxamido)-3-methylbenzoic acid]",$ (% inh >75),# (% inh >75),–,–
"Cc1cc(C(=O)O)cc(Cl)c1NC(=O)c1cc(-c2cccc(Cl)c2)ccc1Cl [Example 22, 3-Chloro-4-(3′,4-dichlorobiphenyl-3-ylcarboxamido)-5-methylbenzoic acid]",$ (% inh >75),# (% inh >75),–,–
"Cc1cc(C(=O)O)cc(C)c1NC(=O)c1nc(-c2cccc(Cl)c2)ccc1Cl [Example 23, 4-(3-Chloro-6-(3-chlorophenyl)picolinamido)-3,5-dimethylbenzoic acid]",–,–,> 75%,> 75%
"Cc1cc(C(=O)O)cc(C)c1NC(=O)c1cc(OCC(C)C)ccc1Cl [Example 24, 4-(2-Chloro-5-isobutoxybenzamido)-3,5-dimethylbenzoic acid]",–,–,> 75%,> 75%
"CC(C)COc1ccc(Cl)c(C(=O)Nc2c(Cl)cc(C(=O)O)cc2Cl)c1 [Example 25, 3,5-Dichloro-4-(2-chloro-5-isobutoxybenzamido)benzoic acid]",–,–,> 75%,> 75%
"O=C(O)c1cc(Cl)c(NC(=O)c2cc(OCc3ccc(F)cc3F)ccc2Cl)c(Cl)c1 [Example 35, 3,5-Dichloro-4-(2-chloro-5-(2,4-difluorobenzyloxy)benzamido)benzoic acid]",–,–,> 75%,> 75%
"O=C(O)c1cc(Cl)c(NC(=O)c2cc(OCc3ccc(Cl)cc3F)ccc2Cl)c(Cl)c1 [Example 36, 3,5-Dichloro-4-(2-chloro-5-(4-chloro-2-fluorobenzyloxy)benzamido)benzoic acid]",–,–,> 75%,> 75%
"Cc1ccc(C(=O)O)cc1NC(=O)c1cc(-c2cccc(Cl)c2)ccc1C [Example 38, 3-(3′-Chloro-4-methylbiphenyl-3-ylcarboxamido)-4-methylbenzoic acid]",$ (% inh >75),# (% inh >75),–,–
"Cc1ccc(C(=O)O)cc1NC(=O)c1nc(-c2cccc(Cl)c2)ccc1Cl [Example 42, 3-(3-Chloro-6-(3-chlorophenyl)picolinamido)-4-methylbenzoic acid]",–,–,> 75%,> 75%
